Source: patent EP1064284B1, “HYPNOTIC BETA-CARBOLINE DERIVATIVES, PROCESS FOR THEIR PREPARATION AND THEIR USE AS MEDICINAL PRODUCTS” (priority 1998, dated 1999)
Entries after “also recorded” stand apart in the source; their conditions may differ. Like-named read-outs stand apart in the source and are kept apart here.

How the values were obtained:
[1] = Stability in acidic medium (hydrolysis of cycle A in pH buffers, HPLC); format: physicochemical; settings: for Hydrolysis rate (%) pH=1: pH=1 buffer; for Hydrolysis rate (%) pH=1 / Hydrolysis rate (%) pH=2 / Hydrolysis rate (%) pH=3 / Hydrolysis rate (%) pH=7 (reference): 30 µM in 5 ml, stirred 15 minutes at 37°C; for Hydrolysis rate (%) pH=2: pH=2 buffer; for Hydrolysis rate (%) pH=3: pH=3 buffer; for Hydrolysis rate (%) pH=7 (reference): pH=7 (reference) buffer
Method: In order to study the influence of R8 group on the stability of cycle A when comparing compounds EXAMPLE A and EXAMPLE B (R8 = hydrogen atom) to compounds of Example 1, Example 4, Example 7, Example 8 and Example 11, 30 µM of each of these compounds were dissolved into 5 ml of pH=1 or pH=2 or pH=3 or pH=7 (reference) buffer. Solutions were stirred for 15 minutes at 37°C. Subsequent measurements of compounds amounts non hydrolyzed were measured using a high performance liquid chromatography method. [drawing 18] Table I :
Compounds n°1, 4, 7, 8 and 11 are quite stable from pH=2, since less than 27 per cent of these compounds are hydrolysed at pH≥2.

[2] = Absolute oral bioavailability (oral/IV) in Beagle dogs; format: in vivo
[3] = tested on: Beagle dogs; assay: Hypnotic activity: effects on wakefulness / sleep states in Beagle dogs (EEG/EMG/EOG polygraph); format: in vivo; settings: for Mean (± S.D.) duration of stages in 8 dogs (minutes) REM / Mean (± S.D.) latencies after administration (minutes) REM / Mean (± S.D.) duration of stages in 8 dogs (minutes) Drowsy / Mean (± S.D.) duration of stages in 8 dogs (minutes) SWS / Mean (± S.D.) duration of stages in 8 dogs (minutes) Sleep / Mean (± S.D.) duration of stages in 8 dogs (minutes) Wake / Mean (± S.D.) latencies after administration (minutes) Drowsy / Mean (± S.D.) latencies after administration (minutes) SWS: 120 minutes observation; for hypnotic effect in Beagle dogs (in words): oral
Method: Beagle dogs are kept in a metal cage, connected to 2 Schwartzer ED 24 Polygraph equipped with BRAINLAB® software, through a flexible cable. Test and control products are administered via the oral or intravenous routes by means of gastric tubes. Records are scored in 30 seconds epochs for active wake, drowsy, slow wave sleep (light sleep + deep sleep) and REM sleep. These criteria are according to SHELTON et al.( in SHELTON J., NISHINO S., VAUGHT J., DEMENT W.C. and MIGNOT E. Comparative effects of modafinil and amphetamine on daytime sleepiness and cataplexy of narcoleptic dogs. Sleep 19(1); 29-38, 1996.), based upon frequency and amplitude patterns of EEG cortical tracing (fronto-frontal), EMG (upper neck muscles) and EOG (bilateral). Behaviour is also continuously monitored for each observation period of 120 minutes. Prior acclimatisation of the dogs take 5 days; and, to mimic similar stress caused by gastric tubing, a mixture water/PEG (50/50; V/V) was administered orally together with intravenous boluses. • Wake : includes all episodes with low voltage mixed frequency tracing in which the EMG is not inhibited. […] Synchronous waves at 4 - 7 Hz and 50 - 100 µV appear on a background of low voltage fast-wave activity. […] EEG patterns are of higher amplitude than in the previous stage and sleep spindles ( 10 - 14 Hz) and / or K complexes must be present in light sleep, as EOG show slow eye movements or no movement. Deep sleep is scored when slow delta waves (< 4 Hz) constitute 20 p. cent of an epoch or more during deep sleep. • REM : rapid eye movement sleep is scored when dogs lay down, eyes closed with intermittent apparent fast muscle twitches. A low voltage mixed frequency EEG tracing is observed together with rapid eye movements and a drop in EMG activity.
Repartition and duration of wakefulness / sleep states in Beagle dogs have been measured after oral (and intravenous route for compoundof EXAMPLE 1) administrations of Placebo (vehicle = 10 ml of mixture ethanol / PEG 400 / water; 10 / 40 /50; V/V/V) compounds of Example 1, Example 4 and Example 7.
Results are presented in Tables II and III as Durations and Latencies of each stage.

[4] = dog, in vivo, Beagle dogs, fasting conditions, oral relative to intravenous route, read-out: Absolute bioavailability oral/IV in Beagle dogs (fasting conditions) 1 < gastric pH < 2

| Structure (SMILES) | Hydrolysis rate (%) pH=1 [1] [%] | Hydrolysis rate (%) pH=2 [1] [%] | Hydrolysis rate (%) pH=3 [1] [%] | Hydrolysis rate (%) pH=7 (reference) [1] [%] | per cent of compounds hydrolysed at pH≥2 [1] | bioavailability ([2]; beagle, dog, in vivo) [%] | hypnotic effect in Beagle dogs (in words) [3] | other results |
| --- | --- | --- | --- | --- | --- | --- | --- | --- |
| COc1ccc2[nH]c3c(c2c1)CCN1C(=O)CCC=C31 [EXAMPLE A, reference compound] | 100 | 100 | 100 | 0 |  |  |  | hydrolysis between pH=1 and pH=3 (in words) [1]: totally hydrolyzed; bioavailability [2, 4]: < 1% |
| COc1ccc2[nH]c3c(c2c1)CCN1C(=O)CCCC31 (stereo not shown) [EXAMPLE B, reference compound] | 95 | 95 | 90 | 0 |  |  |  | hydrolysis between pH=1 and pH=3 (in words) [1]: totally hydrolyzed; Absolute bioavailability oral/IV in Beagle dogs (fasting conditions) 1 < gastric pH < 2 ([2]; Beagle dogs, fasting conditions, oral relative to intravenous route): <5%; bioavailability [2, 4]: < 5% |
| CCC1=C2c3[nH]c4ccc(OC)cc4c3CCN2C(=O)CC1 [Example 1, 9-methoxy-1-ethyl-2,3,4,6,7,12-hexahydroindolo [2,3-a] quinolizin-4-one] | 79.5 | 14.5 | 8.7 | 0 | less than 27 per cent | > 35 | significant hypnotic effect; also recorded: potent hypnotic activity | Absolute bioavailability oral/IV in Beagle dogs (fasting conditions) 1 < gastric pH < 2 ([2]; beagle, dog, in vivo): >35%; Mean (± S.D.) duration of stages in 8 dogs (minutes) REM ([3]; 2.5 µmol/Kg IV): 3.8 (3.9) minutes; Mean (± S.D.) latencies after administration (minutes) REM ([3]; 2.5 µmol/Kg IV): 79.9 (25.4) minutes; Mean (± S.D.) duration of stages in 8 dogs (minutes) REM ([3]; 2.5 µmol/Kg oral): 3.3 (3.4) minutes; Mean (± S.D.) latencies after administration (minutes) REM ([3]; 2.5 µmol/Kg oral): 82.9 (32.8) minutes; Mean (± S.D.) duration of stages in 8 dogs (minutes) REM ([3]; 5 µmol/Kg oral, Table II): 3.1 (3.7) minutes; Mean (± S.D.) latencies after administration (minutes) REM ([3]; 5 µmol/Kg oral, Table II): 79.3 (33.3) minutes; Mean (± S.D.) duration of stages in 8 dogs (minutes) REM ([3]; 10 µmol/Kg oral, Table II): 2.4 (3.5) minutes; Mean (± S.D.) latencies after administration (minutes) REM ([3]; 10 µmol/Kg oral, Table II): 101.9 (27.3) minutes |
| COc1ccc2[nH]c3c(c2c1)CCN1C(=O)CCC(c2ccccc2)=C31 [Example 4, 9-methoxy-1-phenyl-2,3,4,6,7,12-hexahydroindolo[2,3-a] quinolizin-4-one] | 0 | 0 | 0 | 0 | less than 27 per cent | > 20 | significant hypnotic effect; also recorded: potent hypnotic activity | Absolute bioavailability oral/IV in Beagle dogs (fasting conditions) 1 < gastric pH < 2 ([2]; beagle, dog, in vivo): >20%; Mean (± S.D.) duration of stages in 8 dogs (minutes) Drowsy ([3]; 10 µmol/Kg oral, Table III): 10.4 (3.9) minutes; Mean (± S.D.) duration of stages in 8 dogs (minutes) REM ([3]; 10 µmol/Kg oral, Table III): 4.4 (4.5) minutes; Mean (± S.D.) duration of stages in 8 dogs (minutes) SWS ([3]; 10 µmol/Kg oral, Table III): 31.5 (17.6) minutes; Mean (± S.D.) duration of stages in 8 dogs (minutes) Sleep ([3]; 10 µmol/Kg oral, Table III): 46.3 (21.3) minutes; Mean (± S.D.) duration of stages in 8 dogs (minutes) Wake ([3]; 10 µmol/Kg oral, Table III): 73.8 (21.3) minutes; Mean (± S.D.) latencies after administration (minutes) Drowsy ([3]; 10 µmol/Kg oral, Table III): 50.4 (19.8) minutes; Mean (± S.D.) latencies after administration (minutes) REM ([3]; 10 µmol/Kg oral, Table III): 93.1 (26.3) minutes; Mean (± S.D.) latencies after administration (minutes) SWS ([3]; 10 µmol/Kg oral, Table III): 58.1 (27.0) minutes |
| CCC1=C2c3[nH]c4ccc(OC)cc4c3CCN2C(=S)CC1 [Example 7, 9-methoxy-1-ethyl-2,3,4,6,7,12-hexahydroindolo[2,3-a] quinolizine-4-thione] | 17.0 | 13.0 | 5.4 | 0 | less than 27 per cent |  | significant hypnotic effect; also recorded: potent hypnotic activity | Mean (± S.D.) duration of stages in 8 dogs (minutes) Drowsy ([3]; 5.0 µmol/Kg oral, Table III): 13.0 (8.6) minutes; Mean (± S.D.) duration of stages in 8 dogs (minutes) REM ([3]; 5.0 µmol/Kg oral, Table III): 4.4 (6.1) minutes; Mean (± S.D.) duration of stages in 8 dogs (minutes) SWS ([3]; 5.0 µmol/Kg oral, Table III): 18.9 (14.7) minutes; Mean (± S.D.) duration of stages in 8 dogs (minutes) Sleep ([3]; 5.0 µmol/Kg oral, Table III): 35.1 (25.8) minutes; Mean (± S.D.) duration of stages in 8 dogs (minutes) Wake ([3]; 5.0 µmol/Kg oral, Table III): 83.7 (25.1) minutes; Mean (± S.D.) latencies after administration (minutes) Drowsy ([3]; 5.0 µmol/Kg oral, Table III): 59.0 (20.0) minutes; Mean (± S.D.) latencies after administration (minutes) REM ([3]; 5.0 µmol/Kg oral, Table III): 91.1 (28.1) minutes; Mean (± S.D.) latencies after administration (minutes) SWS ([3]; 5.0 µmol/Kg oral, Table III): 74.1 (26.3) minutes |
| CCC1CCC(=O)N2CCc3c([nH]c4ccc(OC)cc34)C12 (stereo not shown) [Example 8, 9-methoxy-1-ethyl-1,2,3,4,6,7,12,12b-octahydroindolo [2,3-a] quinolizin-4-one] | 0 | 0 | 0 | 0 | less than 27 per cent | 100 |  |  |
| COc1ccc2[nH]c3c(c2c1)CCN1C(=S)CCC(c2ccccc2)=C31 [Example 11, 9-methoxy-1-phenyl-2,3,4,6,7,12-hexahydroindolo [2,3-a] [beta]quinolizin 4-thione] | 26.0 | 27.0 | 30.0 | 0 | less than 27 per cent |  |  |  |
